Laboratory results published in patent publication US6890951B2, “Treatment of addiction and addiction-related behavior” (Brookhaven Science Associates LLC, priority 1998, dated 2005).

Tested on: male Sprague-Dawley rats
Assay: Food-induced conditioned place preference
Assay type: in vivo
From the text: In order to test food-induced CPP in rodents, four groups of rats were allowed access to food ad libitum during the entire 12 session of CPP procedure. The 12 session CPP procedure was exactly the same as the procedure used in the cocaine induced CPP studies except the appetitive substance was food rather than cocaine. […] The animals in all four groups were habituated to Froot Loops, a fruit-flavored breakfast cereal that is very appealing to laboratory rats, in the appropriate chamber in the test room during four habituating sessions. […] The amount of time spent in the paired and unpaired chambers was recorded using an automated device.
In this example the procedure outlined in Section 3 of Materials and Methods was followed.

C=CC(N)CCC(=O)O (racemic) [GVG, 4-amino-5-hexanoic acid]
Time spent in chambers, Paired (GVG 150 mg/kg ip / Food): 9.4 ± 0.4 min
Time spent in chambers, Unpaired (GVG 150 mg/kg ip / Food): 5.6 ± 0.5 min
Time spent in chambers, Paired (GVG 300 mg/kg ip / Food): 9.0 ± 0.5 min
Time spent in chambers, Unpaired (GVG 300 mg/kg ip / Food): 6.0 ± 0.5 min
CPP response to food (GVG 150 and 300 mg/kg): did not alter the CPP response to food
